Assay results as given in patent US20250360109A1, “COMPOSITIONS AND METHODS FOR TREATING DEPRESSION IN FEMALES” (priority 2022, published 2025).

Experiments:
[1] = test system: adult subjects with major depressive disorder (MDD); experiment: Phase 2 placebo-controlled study in MDD, Montgomery-Asberg Depression Rating Scale (MADRS) total score; format: in vivo, human
Protocol: (§1) A Phase 2, multicenter, double-blind, randomized, placebo-controlled study of the safety and efficacy of SP-624 in the treatment of adult subjects with major depressive disorder (MDD) as defined by the Diagnostic and Statistical Manual of Mental Disorders, Fifth Edition (DSM-5) was carried out. Following the successful completion of a Screening Phase, subjects were randomized to one of two treatment groups in a 1:1 ratio and received Compound 1 (SP-624) or placebo over a treatment period of four weeks (Treatment Group #1: SP-624 20 mg/day; Treatment Group #2: Placebo).
(§2) Prior to initiating the 4-week treatment period, subjects completed a Screening/Baseline period of up to 28 days, during which time all screening assessments were performed, and any current depression medications discontinued. All screening assessments were completed before discontinuing any current depression medications. Subjects returned for a Baseline Visit to complete efficacy and safety assessments. During the treatment period, subjects returned to the investigative site to complete efficacy and safety assessments at the end of Weeks 1, 2, 3, and 4. After the final dose of study drug, subjects completed a follow-up period of two weeks and returned at the end of Weeks 5 and 6. Subjects may be treated with anti-depressant medications according to physician recommendations after completion of the Week 5 Visit.
(§3) Each dose of Compound 1 was supplied as two capsules, each containing 10 mg of active pharmaceutical ingredient (API). Matching placebo capsules identical in shape and color to the active capsules were used.
The primary efficacy endpoint was Change from Baseline to Week 4 in Montgomery-Asberg Depression Rating Scale (MADRS) total score.
(§4) Secondary efficacy endpoints included: • Change from Baseline to Weeks 1, 2, and 3 in MADRS total score, • Change from Baseline to Weeks 1, 2, 3, and 4 in Clinical Global Impression-Severity (CGI-S) total score, • Change from Baseline to Week 5 and change from Week 4 to Week 5 in MADRS total score and CGI-S total score, • Change from Baseline to Week 2 and Week 4 in the 17-item Hamilton Depression Rating Scale (HAM D-17) total score, • Change from Baseline to Week 2 and Week 4 in the Sheehan Disability Scale (SDS), • Change from Baseline to Week 2 and Week 4 in the Quick Inventory of Depressive Symptomology-Self Report (QIDS-SR), and • Change from Baseline to Week 2 and Week 4 in the Quality of Life Enjoyment and Satisfaction Questionnaire-Short Form (Q-LES-Q-SF).

[2] = test system: adult subjects with major depressive disorder (MDD); experiment: Phase 2 placebo-controlled study in MDD, Quick Inventory of Depressive Symptomology-Self Report (QIDS-SR); format: in vivo, human; conditions: mITT; for Change from Baseline, QIDS Total at Week 2, LSM Difference (95% CI) / Change from Baseline, QIDS Total at Week 4, LSM Difference (95% CI): 20 mg/day vs Placebo; for Change from Baseline, QIDS Total at Week 2, Mean (SD) / Change from Baseline, QIDS Total at Week 2, Median / Change from Baseline, QIDS Total at Week 4, Mean (SD) / Change from Baseline, QIDS Total at Week 4, Median / QIDS Total at Week 2, Mean (SD) / QIDS Total at Week 2, Median / QIDS Total at Week 4, Mean (SD) / QIDS Total at Week 4, Median: 20 mg/day
Protocol: as §1, §2, §3, §4

[3] = Male, 20 mg/day vs Placebo, mITT, MMRM

## COC1=CC(=O)C[C@@H](C)[C@]12Oc1c(Cl)c(-c3nnc(C)o3)cc(OC)c1C2=O [SP-624, (2S,6′R)-7-Chloro-2′,4-dimethoxy-6′-methyl-6-(5-methyl-1,3,4-oxadiazol-2-yl)-3H-spiro[1-benzofuran-2,1′-cyclohex [2]ene]-3,4′-dione]
[1]; [3]
  Change from Baseline, MADRS Total at Week 2, LSM Difference (95% CI): −0.7 (−4.1, 2.8)
  Change from Baseline, MADRS Total at Week 3, LSM Difference (95% CI): 2.2 (−1.3, 5.8)
  Change from Baseline, MADRS Total at Week 4, LSM Difference (95% CI): 2.7 (−0.8, 6.3)
[1]; Male, 20 mg/day, mITT
  Change from Baseline, MADRS Total at Week 1, Mean (SD): −6.6 (7.04)
  Change from Baseline, MADRS Total at Week 1, Median: −5
  Change from Baseline, MADRS Total at Week 2, Mean (SD): −9.8 (8.94)
  Change from Baseline, MADRS Total at Week 2, Median: −9
  Change from Baseline, MADRS Total at Week 3, Mean (SD): −10.6 (9.28)
  Change from Baseline, MADRS Total at Week 3, Median: −9
  Change from Baseline, MADRS Total at Week 4, Mean (SD): −11.4 (9.44)
  Change from Baseline, MADRS Total at Week 4, Median: −10
  MADRS Total at Week 1, Mean (SD): 25.5 (7.31)
  MADRS Total at Week 1, Median: 26
  MADRS Total at Week 2, Mean (SD): 22.6 (9.35)
  MADRS Total at Week 2, Median: 24
  MADRS Total at Week 3, Mean (SD): 21.4 (9.60)
  MADRS Total at Week 3, Median: 22
  MADRS Total at Week 4, Mean (SD): 20.8 (9.61)
  MADRS Total at Week 4, Median: 21
[1]; females, therapeutically effective
  lowering the MADRS score by an average of: 3.9 points
[1]; males
  effect on MADRS score: no effect
[2]; Female
  Change from Baseline, QIDS Total at Week 2, LSM Difference (95% CI): −1.1 (−2.4, 0.3)
  Change from Baseline, QIDS Total at Week 4, LSM Difference (95% CI): −2.0 (−3.3, −0.6)
  Change from Baseline, QIDS Total at Week 2, Mean (SD): −3.9 (4.37)
  Change from Baseline, QIDS Total at Week 2, Median: −3
  Change from Baseline, QIDS Total at Week 4, Mean (SD): −5.7 (4.76)
  Change from Baseline, QIDS Total at Week 4, Median: −5
  QIDS Total at Week 2, Mean (SD): 11.7 (4.87)
  QIDS Total at Week 2, Median: 12
  QIDS Total at Week 4, Mean (SD): 10.2 (4.69)
  QIDS Total at Week 4, Median: 10
[2]; Male
  Change from Baseline, QIDS Total at Week 2, LSM Difference (95% CI): 1.2 (−0.9, 3.2)
  Change from Baseline, QIDS Total at Week 4, LSM Difference (95% CI): 1.1 (−0.8, 3.0)
  Change from Baseline, QIDS Total at Week 2, Mean (SD): −2.1 (5.50)
  Change from Baseline, QIDS Total at Week 2, Median: −2
  Change from Baseline, QIDS Total at Week 4, Mean (SD): −3.3 (4.46)
  Change from Baseline, QIDS Total at Week 4, Median: −4
  QIDS Total at Week 2, Mean (SD): 11.7 (5.27)
  QIDS Total at Week 2, Median: 12
  QIDS Total at Week 4, Mean (SD): 10.4 (4.55)
  QIDS Total at Week 4, Median: 11
